Test results published in ChEMBL document CHEMBL5113513, “Selective Inhibitors of Medium-Size S1' Pocket Matrix Metalloproteinases: A Stepping Stone of Future Drug Discovery” (J Med Chem, 2022).
Converted amounts (≈) assume the structure as drawn. Values belong to the compound of their own block, whether it stands above or below them.

Legend:
[1] = Inhibition of brain damage in C57BL/6J mouse traumatic brain injury model at 25 mg/kg, ip for 7 days by cresyl violet-staining based histopathological analysis; assay type: functional; conditions: 168 h, time 7 day
[2] = target: T1, Matrix metalloproteinase-14 (Homo sapiens, UniProt P50281); test: Inhibition of human MMP-14 using Mca-Pro-Leu-Gly-Leu-Dpa-Ala-Arg-NH2 as substrate preincubated for 1 hr followed by susbstrate addition by fluorescent analysis
[3] = target: T2, 72 kDa type IV collagenase (Homo sapiens, UniProt P08253); test: Inhibition of human MMP-2 using Mca-Pro-Leu-Gly-Leu-Dpa-Ala-Arg-NH2 as substrate preincubated for 1 hr followed by susbstrate addition by fluorescent analysis
T2 sequence (P08253 whole entry): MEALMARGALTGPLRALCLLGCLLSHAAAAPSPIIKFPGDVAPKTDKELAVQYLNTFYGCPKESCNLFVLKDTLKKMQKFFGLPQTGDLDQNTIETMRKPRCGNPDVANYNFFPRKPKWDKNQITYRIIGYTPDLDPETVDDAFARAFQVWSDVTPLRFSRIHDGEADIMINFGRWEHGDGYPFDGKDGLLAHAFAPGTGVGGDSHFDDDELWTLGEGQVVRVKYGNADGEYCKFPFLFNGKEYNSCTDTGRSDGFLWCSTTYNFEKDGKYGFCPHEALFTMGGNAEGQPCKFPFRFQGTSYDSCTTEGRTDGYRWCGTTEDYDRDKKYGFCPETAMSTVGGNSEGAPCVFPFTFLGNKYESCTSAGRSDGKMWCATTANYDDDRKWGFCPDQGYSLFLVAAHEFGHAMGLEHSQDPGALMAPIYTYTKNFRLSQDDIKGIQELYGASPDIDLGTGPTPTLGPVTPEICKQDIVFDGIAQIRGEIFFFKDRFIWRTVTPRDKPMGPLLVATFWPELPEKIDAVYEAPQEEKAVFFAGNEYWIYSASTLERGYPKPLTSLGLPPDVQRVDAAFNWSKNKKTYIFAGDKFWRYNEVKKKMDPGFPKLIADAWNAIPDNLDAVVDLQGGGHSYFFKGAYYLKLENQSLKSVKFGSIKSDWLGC

[4] = target: T3, Neutrophil collagenase (Homo sapiens, UniProt P22894); test: Inhibition of human MMP-8 using Mca-Pro-Leu-Gly-Leu-Dpa-Ala-Arg-NH2 as substrate preincubated for 1 hr followed by susbstrate addition by fluorescent analysis
T3 sequence (P22894 whole entry): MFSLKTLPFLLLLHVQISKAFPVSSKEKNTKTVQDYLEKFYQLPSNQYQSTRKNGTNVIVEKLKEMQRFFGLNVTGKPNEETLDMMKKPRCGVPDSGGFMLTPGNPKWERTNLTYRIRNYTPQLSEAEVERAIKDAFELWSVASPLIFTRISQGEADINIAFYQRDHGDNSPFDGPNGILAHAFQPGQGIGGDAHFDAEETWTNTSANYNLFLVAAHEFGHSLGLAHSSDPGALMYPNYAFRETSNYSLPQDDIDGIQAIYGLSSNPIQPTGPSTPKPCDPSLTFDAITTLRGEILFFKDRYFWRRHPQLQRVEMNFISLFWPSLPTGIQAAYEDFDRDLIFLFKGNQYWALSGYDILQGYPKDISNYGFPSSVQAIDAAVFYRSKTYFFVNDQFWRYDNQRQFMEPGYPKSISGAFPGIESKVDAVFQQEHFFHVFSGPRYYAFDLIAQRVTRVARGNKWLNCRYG

[5] = target: T4, Interstitial collagenase (Homo sapiens, UniProt P03956); test: Inhibition of human MMP-1 using Mca-Pro-Leu-Gly-Leu-Dpa-Ala-Arg-NH2 as substrate preincubated for 1 hr followed by susbstrate addition by fluorescent analysis
T4 sequence (P03956 whole entry): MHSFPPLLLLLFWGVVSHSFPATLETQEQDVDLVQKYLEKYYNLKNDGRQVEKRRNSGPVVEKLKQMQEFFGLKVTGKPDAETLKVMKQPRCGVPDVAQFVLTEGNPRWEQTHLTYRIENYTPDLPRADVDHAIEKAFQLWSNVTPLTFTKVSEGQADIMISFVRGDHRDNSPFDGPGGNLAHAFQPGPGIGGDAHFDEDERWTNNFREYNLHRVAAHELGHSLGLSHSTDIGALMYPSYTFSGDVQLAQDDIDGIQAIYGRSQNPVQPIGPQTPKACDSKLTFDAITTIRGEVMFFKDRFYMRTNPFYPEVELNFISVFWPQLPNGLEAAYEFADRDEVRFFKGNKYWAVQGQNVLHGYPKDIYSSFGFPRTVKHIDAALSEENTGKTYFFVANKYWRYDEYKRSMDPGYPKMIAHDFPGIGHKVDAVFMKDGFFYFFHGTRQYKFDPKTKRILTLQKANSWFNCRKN

[6] = target: T5, Matrix metalloproteinase-9 (Homo sapiens, UniProt P14780); test: Inhibition of MMP-9 (unknown origin) catalytic activity using Ac-PLG-[2-mercapto-4-methylpentanoyl]-LG-OC2H5 as substrate and measured upto 30 mins by microplate reader analysis
T5 sequence (P14780 whole entry): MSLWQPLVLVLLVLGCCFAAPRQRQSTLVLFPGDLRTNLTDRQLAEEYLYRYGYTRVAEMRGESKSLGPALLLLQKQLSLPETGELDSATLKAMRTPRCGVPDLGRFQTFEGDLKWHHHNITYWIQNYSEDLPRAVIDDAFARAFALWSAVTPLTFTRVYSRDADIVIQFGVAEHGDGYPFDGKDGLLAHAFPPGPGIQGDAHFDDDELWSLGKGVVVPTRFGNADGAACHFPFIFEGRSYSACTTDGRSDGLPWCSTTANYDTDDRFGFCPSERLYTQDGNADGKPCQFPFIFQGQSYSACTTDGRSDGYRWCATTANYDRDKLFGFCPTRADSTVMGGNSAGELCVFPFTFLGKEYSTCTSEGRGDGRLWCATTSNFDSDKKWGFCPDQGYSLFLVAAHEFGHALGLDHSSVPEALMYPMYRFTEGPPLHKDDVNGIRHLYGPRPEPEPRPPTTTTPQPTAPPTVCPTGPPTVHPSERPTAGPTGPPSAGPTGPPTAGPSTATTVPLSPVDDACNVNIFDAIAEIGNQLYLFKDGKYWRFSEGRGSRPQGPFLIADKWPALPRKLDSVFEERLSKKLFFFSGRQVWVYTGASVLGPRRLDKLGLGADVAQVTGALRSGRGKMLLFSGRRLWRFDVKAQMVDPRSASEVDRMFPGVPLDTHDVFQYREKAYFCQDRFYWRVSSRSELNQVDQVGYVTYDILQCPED

[7] = system: HT-1080; test: Inhibition of cell invasion in human HT-1080 for 22 hrs by CyQuantGR dye based fluorometric analysis; assay type: functional
[8] = target: T6, Collagenase 3 (Homo sapiens, UniProt P45452)
Description: Inhibition of MMP-13 (unknown origin)

[9] = target: T7, Macrophage metalloelastase (Homo sapiens, UniProt P39900); test: Inhibition of MMP-12 (unknown origin)
T7 sequence (P39900 whole entry): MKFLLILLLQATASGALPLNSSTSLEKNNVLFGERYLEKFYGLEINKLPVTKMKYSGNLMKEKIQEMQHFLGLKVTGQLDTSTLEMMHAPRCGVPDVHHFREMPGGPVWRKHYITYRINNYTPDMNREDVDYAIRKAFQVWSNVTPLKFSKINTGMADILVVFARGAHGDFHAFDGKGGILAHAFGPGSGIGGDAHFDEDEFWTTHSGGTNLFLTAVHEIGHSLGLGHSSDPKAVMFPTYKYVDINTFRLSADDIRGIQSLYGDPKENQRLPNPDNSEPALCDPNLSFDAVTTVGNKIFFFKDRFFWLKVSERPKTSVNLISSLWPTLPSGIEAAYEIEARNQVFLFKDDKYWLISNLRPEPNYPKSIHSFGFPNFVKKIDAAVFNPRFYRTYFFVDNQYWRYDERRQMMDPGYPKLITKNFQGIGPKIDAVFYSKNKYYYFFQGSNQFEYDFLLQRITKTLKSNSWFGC

[10] = target: T2, 72 kDa type IV collagenase; test: Inhibition of MMP-2 (unknown origin) catalytic activity using Ac-PLG-[2-mercapto-4-methylpentanoyl]-LG-OC2H5 as substrate and measured upto 30 mins by microplate reader analysis
[11] = target: T8, Matrilysin (Homo sapiens, UniProt P09237); test: Inhibition of MMP-7 (unknown origin)
T8 sequence (P09237 whole entry): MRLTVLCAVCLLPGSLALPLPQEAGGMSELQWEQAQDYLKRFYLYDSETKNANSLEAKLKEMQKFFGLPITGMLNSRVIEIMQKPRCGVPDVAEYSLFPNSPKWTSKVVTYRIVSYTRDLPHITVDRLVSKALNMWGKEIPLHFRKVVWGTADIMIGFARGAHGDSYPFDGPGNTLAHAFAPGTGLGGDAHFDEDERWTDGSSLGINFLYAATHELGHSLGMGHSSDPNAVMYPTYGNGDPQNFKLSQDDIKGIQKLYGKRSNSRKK

[12] = target: T3, Neutrophil collagenase; test: Inhibition of MMP-8 (unknown origin)
[13] = target: T9, Stromelysin-2 (Homo sapiens, UniProt P09238); test: Inhibition of MMP-10 (unknown origin)
T9 sequence (P09238 whole entry): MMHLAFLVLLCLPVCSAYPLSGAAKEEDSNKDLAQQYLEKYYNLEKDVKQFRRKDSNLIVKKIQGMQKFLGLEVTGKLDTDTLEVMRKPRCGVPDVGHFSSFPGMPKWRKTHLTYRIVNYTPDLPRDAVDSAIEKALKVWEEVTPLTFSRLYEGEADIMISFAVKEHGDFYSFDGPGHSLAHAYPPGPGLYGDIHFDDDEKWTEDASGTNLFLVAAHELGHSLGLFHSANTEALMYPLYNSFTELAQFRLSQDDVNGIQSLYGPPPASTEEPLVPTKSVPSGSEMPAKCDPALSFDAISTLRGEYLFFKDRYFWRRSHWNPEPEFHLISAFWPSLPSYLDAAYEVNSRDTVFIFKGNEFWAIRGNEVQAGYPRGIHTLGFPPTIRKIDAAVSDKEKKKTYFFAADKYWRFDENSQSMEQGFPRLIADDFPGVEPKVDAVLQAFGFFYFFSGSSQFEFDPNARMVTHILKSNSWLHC

[14] = target: T10, Stromelysin-1 (Homo sapiens, UniProt P08254); test: Inhibition of MMP-3 (unknown origin)
T10 sequence (P08254 whole entry): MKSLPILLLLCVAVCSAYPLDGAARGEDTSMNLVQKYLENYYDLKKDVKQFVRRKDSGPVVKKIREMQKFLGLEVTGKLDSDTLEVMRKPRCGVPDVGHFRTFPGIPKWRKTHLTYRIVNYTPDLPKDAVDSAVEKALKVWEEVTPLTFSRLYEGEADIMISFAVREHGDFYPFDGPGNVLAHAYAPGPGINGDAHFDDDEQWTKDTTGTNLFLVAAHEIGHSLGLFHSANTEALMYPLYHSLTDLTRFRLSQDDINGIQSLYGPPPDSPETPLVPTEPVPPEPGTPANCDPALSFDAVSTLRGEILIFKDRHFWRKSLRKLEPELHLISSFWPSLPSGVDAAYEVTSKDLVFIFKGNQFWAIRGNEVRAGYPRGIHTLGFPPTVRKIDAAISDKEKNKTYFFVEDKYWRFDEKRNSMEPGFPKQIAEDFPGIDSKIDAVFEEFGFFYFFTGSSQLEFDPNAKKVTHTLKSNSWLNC

[15] = target: T4, Interstitial collagenase; test: Inhibition of MMP-1 (unknown origin)
[16] = target: T1, Matrix metalloproteinase-14; test: Inhibition of MMP-14 (unknown origin)
[17] = Aqueous solubility of compound by UV spectroscopy; assay type: physicochemical
[18] = target: T10, Stromelysin-1; test: Inhibition of human MMP-3 expressed in Escherichia coli BL21(DE3) using Mca-Pro-Leu-Gly-Leu-Dpa-Ala-Arg-NH2 as substrate preincubated for 30 mins followed by susbstrate addition by photon-counter spectrophotometer analysis
[19] = target: T6, Collagenase 3; test: Inhibition of human MMP-13 expressed in Escherichia coli BL21(DE3) using Mca-Pro-Leu-Gly-Leu-Dpa-Ala-Arg-NH2 as substrate preincubated for 30 mins followed by susbstrate addition by photon-counter spectrophotometer analysis
[20] = target: T1, Matrix metalloproteinase-14; test: Inhibition of human MMP-14 expressed in Escherichia coli BL21(DE3) using Mca-Pro-Leu-Gly-Leu-Dpa-Ala-Arg-NH2 as substrate preincubated for 30 mins followed by susbstrate addition by photon-counter spectrophotometer analysis
[21] = target: T3, Neutrophil collagenase; test: Inhibition of human MMP-8 expressed in Escherichia coli BL21(DE3) using Mca-Pro-Leu-Gly-Leu-Dpa-Ala-Arg-NH2 as substrate preincubated for 30 mins followed by susbstrate addition by photon-counter spectrophotometer analysis
[22] = target: T8, Matrilysin; test: Inhibition of human MMP-7 expressed in Escherichia coli BL21(DE3) using Mca-Pro-Leu-Gly-Leu-Dpa-Ala-Arg-NH2 as substrate preincubated for 30 mins followed by susbstrate addition by photon-counter spectrophotometer analysis
[23] = target: T7, Macrophage metalloelastase; test: Inhibition of human MMP-12 expressed in Escherichia coli BL21(DE3) using Mca-Pro-Leu-Gly-Leu-Dpa-Ala-Arg-NH2 as substrate preincubated for 30 mins followed by susbstrate addition by photon-counter spectrophotometer analysis
[24] = target: T4, Interstitial collagenase; test: Inhibition of human MMP-1 expressed in Escherichia coli BL21(DE3) using Mca-Pro-Leu-Gly-Leu-Dpa-Ala-Arg-NH2 as substrate preincubated for 30 mins followed by susbstrate addition by photon-counter spectrophotometer analysis
[25] = target: T2, 72 kDa type IV collagenase; test: Inhibition of human MMP-2 expressed in Escherichia coli BL21(DE3) using Mca-Pro-Leu-Gly-Leu-Dpa-Ala-Arg-NH2 as substrate preincubated for 30 mins followed by susbstrate addition by photon-counter spectrophotometer analysis
[26] = target: T9, Stromelysin-2; test: Inhibition of human MMP-10 expressed in Escherichia coli BL21(DE3) using Mca-Pro-Leu-Gly-Leu-Dpa-Ala-Arg-NH2 as substrate preincubated for 30 mins followed by susbstrate addition by photon-counter spectrophotometer analysis
[27] = target: T5, Matrix metalloproteinase-9; test: Inhibition of human MMP-9 expressed in Escherichia coli BL21(DE3) using Mca-Pro-Leu-Gly-Leu-Dpa-Ala-Arg-NH2 as substrate preincubated for 30 mins followed by susbstrate addition by photon-counter spectrophotometer analysis
[28] = target: T7, Macrophage metalloelastase; test: Inhibition of recombinant human MMP-12 by ELISA
[29] = system: B16-F10; test: Inhibition of cell invasion in mouse B16-F10 cells at 100 uM by Matrigel invasion assay; assay type: functional
[30] = target: T6, Collagenase 3; test: Inhibition of recombinant human MMP-13 using peptide substrate by ELISA
[31] = Half life in Sprague-Dawley rats at 50 mg/kg, iv; assay type: ADME, organism-based; conditions: rat, in vivo
[32] = system: Mus musculus; test: Antimetastatic activity in SCID mouse with human tumor cell orthotopic implantation assessed as reduction in tumor metastasis at 50 mg/kg, ip for 6 weeks; assay type: functional; set-up: scale not given: the % may be the effect or the level left
[33] = target: T5, Matrix metalloproteinase-9; test: Inhibition of recombinant human MMP-9 using peptide substrate by ELISA
[34] = system: Mus musculus; test: Antitumor activity against SCID mouse with human tumor cell orthotopic implantation assessed as reduction in tumor growth at 50 mg/kg, ip for 6 weeks; assay type: functional; set-up: scale not given: the % may be the effect or the level left
[35] = Inhibition of recombinant human TACE using peptide substrate by ELISA
[36] = target: T10, Stromelysin-1; test: Inhibition of recombinant human MMP-3 using peptide substrate by ELISA
[37] = target: T7, Macrophage metalloelastase; test: Inhibition of recombinant human MMP-12 using peptide substrate by ELISA
[38] = system: B16-F10; test: Antimetastatic activity in mouse B16-F10 xenografted C57BL mouse melanoma model assessed as reduction in metastasis loci at 12.5 to 50 mg/kg, ip; assay type: functional; set-up: scale not given: the % may be the effect or the level left; conditions: dose 12.5-50 mg/kg
[39] = Half life in Sprague-Dawley rats at 150 mg/kg, po; assay type: ADME, organism-based; conditions: rat, in vivo
[40] = target: T4, Interstitial collagenase; test: Inhibition of recombinant human MMP-1 using peptide substrate by ELISA
[41] = target: T3, Neutrophil collagenase; test: Inhibition of recombinant human MMP-8 using peptide substrate by ELISA
[42] = target: T2, 72 kDa type IV collagenase; test: Inhibition of recombinant human MMP-2 using peptide substrate by ELISA
[43] = Half life in Sprague-Dawley rats at 150 mg/kg, ip; assay type: ADME, organism-based; conditions: rat, in vivo

Compound: O=S(=O)(CC1CS1)c1ccc(Oc2ccccc2)cc1 (stereo not drawn)
- inhibition in vivo at 25 mg/kg [1]: 14%

- IC50 [2]: > 2 µM
- IC50 [3]: > 2 µM
- IC50 [4]: > 2 µM
- IC50 [5]: > 50 µM
Compound: Cc1cc(=O)c(O)c(C(=O)NCc2ccc(-c3ccc(-c4ccccc4)cc3)cc2)o1

- IC50 [6]: 0.0439 µM
- IC50 [8]: 0.0032 µM
- IC50 [9]: 0.0048 µM
- IC50 [10]: 0.0017 µM
- IC50 [11]: 0.825 µM
- IC50 [12]: 0.202 µM
- IC50 [13]: 0.0445 µM
- IC50 [14]: 0.0505 µM
- IC50 [15]: > 1 µM
- IC50 [16]: 0.286 µM
- solubility [17]: 0.996 mg/mL (≈ 2110 µM)
Compound: CN(C)c1ccc(-c2cn(-c3ccc(S(=O)(=O)C4(C(=O)NO)CCOCC4)cc3)nn2)cc1
- inhibition (INH) [7]: 37%

Compound: NC(=O)[C@@H](CCC(=O)O)NC(=O)[C@@H](CCC(=O)O)NC(=O)[C@@H](Cc1cc(-c2ccc(-c3cccc(Cl)c3)cc2)no1)CP(=O)(O)c1ccc(Br)cc1
- Ki [18]: 0.04 µM
- Ki [19]: 0.049 µM
- Ki [20]: 0.14 µM
- Ki [21]: 0.271 µM
- Ki [22]: 0.626 µM
- Ki [23]: 0.00019 µM
- Ki [24]: 67 µM
- Ki [25]: 0.192 µM
- Ki [26]: 18.4 µM
- Ki [27]: 1.27 µM

- IC50 [28]: 0.02 µM
Compound: CC(C)CC(C(=O)NC(c1noc(Sc2ccccc2)n1)C(C)(C)C)C(O)C(=O)NO (stereo not drawn)

Compound: NC1CCCCC1NC(=O)P(=O)(O)O (stereo not drawn)
- inhibition at 100 µM [29]: 90%
- IC50 [30]: > 0.1 µM
- half-life [31]: 0.313 h
- Activity [32]: 90%
- IC50 [33]: 0.02 µM
- Activity [34]: 60%
- IC50 [35]: > 0.1 µM
- IC50 [36]: > 0.1 µM
- IC50 [37]: > 0.1 µM
- Activity [38]: 50%
- half-life [39]: 2.1 h
- IC50 [40]: > 0.1 µM
- IC50 [41]: > 0.1 µM
- IC50 [42]: 0.004 µM
- half-life [43]: 1.8 h
